From article PMC11035696, “Prospective de novo drug design with deep interactome learning” (Nature Communications, 2024)

Experiments:
DOPAMINE D1 RECEPTOR = DOPAMINE D1 RECEPTOR (Homo sapiens, UniProt P21728); experiment: Safety off-target panel, binding; conditions: single point
Description: (§1) Table S9-S12 list all targets, their species, inhibition (%) and assay type for the experiments conducted in the
(§2) off-targets. […] The numbers for mean
(§3) inhibition (%) represent single point measurements.
(§4) off-targets. […] The numbers for
(§5) mean inhibition (%) represent single point measurements.

CANNABINOID RECEPTOR CB1 = CANNABINOID RECEPTOR CB1 (Homo sapiens, UniProt P21554); experiment: Safety off-target panel, binding; conditions: single point
Description: as §1, §2, §3, §4, §5

MUSCARINIC RECEPTOR M1 = MUSCARINIC RECEPTOR M1 (Homo sapiens, UniProt P11229); experiment: Safety off-target panel, binding; conditions: single point
Description: as §1, §2, §3, §4, §5

HISTAMINE H1 RECEPTOR = HISTAMINE H1 RECEPTOR (Homo sapiens, UniProt P35367); experiment: Safety off-target panel, binding; conditions: single point
Description: as §1, §2, §3, §4, §5

5HT2A = 5HT2A (Homo sapiens, UniProt P28223); experiment: Safety off-target panel, binding; conditions: single point
Description: as §1, §2, §3, §4, §5

ANDROGEN RECEPTOR = ANDROGEN RECEPTOR (Homo sapiens, UniProt P10275); experiment: Safety off-target panel, binding; conditions: single point
Description: as §1, §2, §3, §4, §5

ADENOSINE A3 RECEPTOR = ADENOSINE A3 RECEPTOR (Homo sapiens, UniProt P0DMS8); experiment: Safety off-target panel, binding; conditions: single point
Description: as §1, §2, §3, §4, §5

[1] = target: DOPAMINE D2 RECEPTOR (short) (Homo sapiens, UniProt P14416); experiment: Safety off-target panel, binding; conditions: single point
Description: as §1, §2, §3, §4, §5

β1-ADRENOCEPTOR = β1-ADRENOCEPTOR (Homo sapiens, UniProt P08588); experiment: Safety off-target panel, binding; conditions: single point
Description: as §1, §2, §3, §4, §5

5HT1A = 5HT1A (Homo sapiens, UniProt P08908); experiment: Safety off-target panel, binding; conditions: single point
Description: as §1, §2, §3, §4, §5

[2] = target: ANGIOTENSIN II RECEPTOR 1 (Homo sapiens, UniProt P30556); experiment: Safety off-target panel, binding; conditions: single point
Description: as §1, §2, §3, §4, §5

[3] = target: CHOLECYSTOKININ 1 RECEPTOR (Homo sapiens, UniProt P32238); experiment: Safety off-target panel, binding; conditions: single point
Description: as §1, §2, §3, §4, §5

ESTROGEN RECEPTOR α = ESTROGEN RECEPTOR α (Homo sapiens, UniProt P03372); experiment: Safety off-target panel, binding; conditions: single point
Description: as §1, §2, §3, §4, §5

ADENOSINE A1 RECEPTOR = ADENOSINE A1 RECEPTOR (Homo sapiens, UniProt P30542); experiment: Safety off-target panel, binding; conditions: single point
Description: as §1, §2, §3, §4, §5

HISTAMINE H2 RECEPTOR = HISTAMINE H2 RECEPTOR (Homo sapiens, UniProt P25021); experiment: Safety off-target panel, binding; conditions: single point
Description: as §1, §2, §3, §4, §5

[4] = target: NOREPINEPHRINE TRANSPORTER (Homo sapiens, UniProt P23975); experiment: Safety off-target panel, binding; conditions: single point
Description: as §1, §2, §3, §4, §5

SEROTONIN TRANSPORTER = SEROTONIN TRANSPORTER (Homo sapiens, UniProt P31645); experiment: Safety off-target panel, binding; conditions: single point
Description: as §1, §2, §3, §4, §5

κ OPIOID RECEPTOR = κ OPIOID RECEPTOR (Homo sapiens, UniProt P41145); experiment: Safety off-target panel, binding; conditions: single point
Description: as §1, §2, §3, §4, §5

HISTAMINE H3 RECEPTOR = HISTAMINE H3 RECEPTOR (Homo sapiens, UniProt Q9Y5N1); experiment: Safety off-target panel, binding; conditions: single point
Description: as §1, §2, §3, §4, §5

alpha1A-ADRENOCEPTOR = alpha1A-ADRENOCEPTOR (Homo sapiens, UniProt P35348); experiment: Safety off-target panel, binding; conditions: single point
Description: as §1, §2, §3, §4, §5

µ OPIOID RECEPTOR = µ OPIOID RECEPTOR (Homo sapiens, UniProt P35372); experiment: Safety off-target panel, binding; conditions: single point
Description: as §1, §2, §3, §4, §5

[5] = target: NICOTINIC RECEPTOR, MUSCLE (Homo sapiens, UniProt P02708+P07510+P11230+Q07001); experiment: Safety off-target panel, binding; conditions: single point
Description: as §1, §2, §3, §4, §5

5HT3 = 5HT3 (Homo sapiens, UniProt P46098); experiment: Safety off-target panel, binding; conditions: single point
Description: as §1, §2, §3, §4, §5

α2A-ADRENOCEPTOR = α2A-ADRENOCEPTOR (Homo sapiens, UniProt P08913); experiment: Safety off-target panel, binding; conditions: single point
Description: as §1, §2, §3, §4, §5

GLUCOCORTICOID RECEPTOR = GLUCOCORTICOID RECEPTOR (Homo sapiens, UniProt P04150); experiment: Safety off-target panel, binding; conditions: single point
Description: as §1, §2, §3, §4, §5

5HT2B = 5HT2B (Homo sapiens, UniProt P41595); experiment: Safety off-target panel, binding; conditions: single point
Description: as §1, §2, §3, §4, §5

[6] = target: GLYCINE RECEPTOR, STRYCHNINE INSENSITIVE (Rattus norvegicus, UniProt P35439); experiment: Safety off-target panel, binding; conditions: read-out: Mean inhibition (%)
Description: as §1, §2, §3, §4, §5

[7] = Hepatocyte clearance, human; type: in vitro ADME; set-up: Hepatocyte clearance human: unit not given here; conditions: for Hepatocyte clearance human: human hepatocytes, as printed in Table S14
Description: Compounds 1–3 were characterized in a hybrid reporter gene assay for their agoniztic effect on human nuclear receptors PPARα/γ/δ, RXRα, FXRα, RARα in HEK293T cells. Compound 1 was tested in an isothermal titration calorimetry (ITC) assay to measure direct binding affinity to the ligand-binding domain of PPARγ. ADME properties were measured in standardized assays at Roche.
SI11Absorption Distribution Metabolism and Excretion and Toxicity Data
To assess the drug-like characteristics of the newly designed PPAR modulators, a series of tests were conducted covering various aspects of absorption, distribution, metabolism, and excretion (ADME) properties. Specifically, these assessments included the parallel artificial membrane permeability assay (PAMPA) with permeation co- […]
efficients ([…]), LogD measurements, microsomal clearance, hepatocyte clearance, P-glycoprotein (Pgp) efflux ratio and binding and the unbound free fraction. […]
Table S14: Absorption distribution metabolism and excretion (ADME) properties of compounds 1 and 2. The […]
values for […], LogD, protein binding, P-glycoprotein (Pgp) efflux ratio and permeability, and hepato-cyte clearance are presented as the mean and standard deviation, with a sample size of N = 3, i.e., 3 technical replicates each. The values for microsomal clearance and CYP-inhibition represent single point measurements.
Microsomal clearance, human (µL·min−1·mg−1 protein) ≥10 ≥10 ≥10
Microsomal clearance, mouse (µL·min−1·mg−1 protein) ≥10 ≥10 ≥10
Microsomal clearance, rat (µL·min−1·mg−1 protein) ≥10 ≥10 ≥10
Protein binding human (% free fraction) (%) - 0.21 0.42
PgP Transport mouse apical efflux ratio - 1.6 1.2
PgP Transport mouse permeability (nm·sec−1) - 15 60 […]

Chain of ADENOSINE A3 RECEPTOR (P0DMS8 whole entry): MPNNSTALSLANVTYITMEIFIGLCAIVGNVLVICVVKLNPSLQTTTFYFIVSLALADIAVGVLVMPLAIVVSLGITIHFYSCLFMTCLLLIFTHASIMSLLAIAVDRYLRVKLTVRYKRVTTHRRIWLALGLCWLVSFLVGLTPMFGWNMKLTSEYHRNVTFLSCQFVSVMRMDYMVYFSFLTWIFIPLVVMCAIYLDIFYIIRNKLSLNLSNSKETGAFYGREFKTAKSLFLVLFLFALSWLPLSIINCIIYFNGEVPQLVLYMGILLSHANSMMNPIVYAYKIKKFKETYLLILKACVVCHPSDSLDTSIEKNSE
Chain of DOPAMINE D2 RECEPTOR (short) (P14416 1-414 isoform P14416-2): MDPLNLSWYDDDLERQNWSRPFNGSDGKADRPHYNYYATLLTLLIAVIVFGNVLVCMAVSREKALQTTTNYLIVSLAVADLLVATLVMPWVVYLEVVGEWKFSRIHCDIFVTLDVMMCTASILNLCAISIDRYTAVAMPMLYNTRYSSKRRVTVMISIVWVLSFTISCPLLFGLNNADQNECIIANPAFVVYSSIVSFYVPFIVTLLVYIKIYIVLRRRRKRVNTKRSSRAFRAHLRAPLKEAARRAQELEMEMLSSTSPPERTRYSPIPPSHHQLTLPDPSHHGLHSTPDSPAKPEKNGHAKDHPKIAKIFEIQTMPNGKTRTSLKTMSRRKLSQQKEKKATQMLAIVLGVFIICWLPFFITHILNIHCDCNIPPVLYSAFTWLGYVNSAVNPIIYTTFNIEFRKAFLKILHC
Chain of ADENOSINE A1 RECEPTOR (P30542 whole entry): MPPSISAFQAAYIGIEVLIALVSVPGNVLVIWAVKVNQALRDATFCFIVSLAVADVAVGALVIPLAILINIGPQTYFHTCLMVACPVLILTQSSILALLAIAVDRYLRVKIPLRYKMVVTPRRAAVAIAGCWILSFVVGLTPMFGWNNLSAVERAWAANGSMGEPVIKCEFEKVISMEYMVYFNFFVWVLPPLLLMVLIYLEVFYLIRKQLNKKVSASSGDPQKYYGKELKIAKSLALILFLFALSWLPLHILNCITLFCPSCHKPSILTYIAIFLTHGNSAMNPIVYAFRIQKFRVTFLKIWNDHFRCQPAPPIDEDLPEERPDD
Chain of UniProt P08588 (P08588 whole entry): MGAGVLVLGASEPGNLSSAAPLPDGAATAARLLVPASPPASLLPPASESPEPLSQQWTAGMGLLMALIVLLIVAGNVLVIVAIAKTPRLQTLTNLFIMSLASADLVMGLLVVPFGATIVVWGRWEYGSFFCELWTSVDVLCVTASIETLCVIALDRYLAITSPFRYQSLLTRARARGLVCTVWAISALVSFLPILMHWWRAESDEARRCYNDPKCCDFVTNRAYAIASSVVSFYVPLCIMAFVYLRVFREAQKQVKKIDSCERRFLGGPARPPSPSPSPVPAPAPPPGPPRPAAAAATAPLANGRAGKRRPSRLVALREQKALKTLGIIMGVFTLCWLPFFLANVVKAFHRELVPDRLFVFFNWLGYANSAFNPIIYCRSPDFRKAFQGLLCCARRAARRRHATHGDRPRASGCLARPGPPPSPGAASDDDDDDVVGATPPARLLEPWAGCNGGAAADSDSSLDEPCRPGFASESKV
Chain of UniProt P35348 (P35348 whole entry): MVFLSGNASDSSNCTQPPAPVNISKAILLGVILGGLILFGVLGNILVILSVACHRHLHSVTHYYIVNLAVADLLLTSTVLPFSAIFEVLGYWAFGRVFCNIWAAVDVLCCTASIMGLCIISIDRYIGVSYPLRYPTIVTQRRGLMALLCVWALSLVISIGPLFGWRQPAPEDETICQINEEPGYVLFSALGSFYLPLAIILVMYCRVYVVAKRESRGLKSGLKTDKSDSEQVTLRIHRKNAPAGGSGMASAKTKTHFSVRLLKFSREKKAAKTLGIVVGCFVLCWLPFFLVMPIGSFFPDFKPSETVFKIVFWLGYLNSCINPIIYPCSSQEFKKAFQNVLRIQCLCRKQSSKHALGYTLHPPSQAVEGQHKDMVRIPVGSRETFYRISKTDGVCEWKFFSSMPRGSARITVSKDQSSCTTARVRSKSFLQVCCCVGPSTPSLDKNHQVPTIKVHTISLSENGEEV
Chain of HISTAMINE H3 RECEPTOR (Q9Y5N1 whole entry): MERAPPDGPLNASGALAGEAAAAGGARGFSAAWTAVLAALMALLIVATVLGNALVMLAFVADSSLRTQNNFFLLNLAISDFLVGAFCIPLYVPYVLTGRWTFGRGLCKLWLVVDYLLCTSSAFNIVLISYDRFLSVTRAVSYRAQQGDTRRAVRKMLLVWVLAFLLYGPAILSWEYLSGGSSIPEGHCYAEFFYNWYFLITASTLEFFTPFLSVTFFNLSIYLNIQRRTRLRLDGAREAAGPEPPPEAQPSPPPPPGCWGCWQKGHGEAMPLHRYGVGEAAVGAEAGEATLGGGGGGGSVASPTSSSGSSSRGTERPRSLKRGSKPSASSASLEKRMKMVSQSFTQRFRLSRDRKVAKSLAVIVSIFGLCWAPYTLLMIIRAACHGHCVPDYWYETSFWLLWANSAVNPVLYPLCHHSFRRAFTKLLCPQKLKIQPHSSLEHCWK
Chain of µ OPIOID RECEPTOR (P35372 whole entry): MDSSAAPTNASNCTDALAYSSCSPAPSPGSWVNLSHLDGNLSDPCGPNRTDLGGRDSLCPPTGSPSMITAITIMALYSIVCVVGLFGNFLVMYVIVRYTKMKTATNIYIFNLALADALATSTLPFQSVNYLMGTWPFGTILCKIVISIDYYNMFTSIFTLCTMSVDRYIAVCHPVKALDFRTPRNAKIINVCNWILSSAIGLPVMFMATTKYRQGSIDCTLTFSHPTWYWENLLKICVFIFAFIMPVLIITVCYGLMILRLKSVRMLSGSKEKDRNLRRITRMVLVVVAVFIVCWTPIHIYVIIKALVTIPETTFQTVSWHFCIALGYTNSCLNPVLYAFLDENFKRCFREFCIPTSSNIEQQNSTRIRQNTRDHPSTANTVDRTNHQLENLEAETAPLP
Chain of CANNABINOID RECEPTOR CB1 (P21554 whole entry): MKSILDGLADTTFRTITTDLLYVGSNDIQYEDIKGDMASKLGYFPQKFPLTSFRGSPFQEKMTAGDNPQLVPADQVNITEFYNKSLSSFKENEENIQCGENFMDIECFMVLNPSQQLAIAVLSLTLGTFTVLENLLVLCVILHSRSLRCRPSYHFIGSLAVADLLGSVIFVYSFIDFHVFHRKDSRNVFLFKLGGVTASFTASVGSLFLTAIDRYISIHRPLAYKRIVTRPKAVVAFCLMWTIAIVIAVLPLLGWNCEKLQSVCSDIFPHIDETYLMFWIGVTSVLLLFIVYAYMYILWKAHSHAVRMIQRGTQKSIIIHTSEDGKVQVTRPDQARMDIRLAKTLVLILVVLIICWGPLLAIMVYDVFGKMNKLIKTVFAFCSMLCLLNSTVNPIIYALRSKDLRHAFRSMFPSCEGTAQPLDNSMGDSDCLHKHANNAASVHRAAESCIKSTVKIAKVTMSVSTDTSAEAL
Chain of 5HT2B (P41595 whole entry): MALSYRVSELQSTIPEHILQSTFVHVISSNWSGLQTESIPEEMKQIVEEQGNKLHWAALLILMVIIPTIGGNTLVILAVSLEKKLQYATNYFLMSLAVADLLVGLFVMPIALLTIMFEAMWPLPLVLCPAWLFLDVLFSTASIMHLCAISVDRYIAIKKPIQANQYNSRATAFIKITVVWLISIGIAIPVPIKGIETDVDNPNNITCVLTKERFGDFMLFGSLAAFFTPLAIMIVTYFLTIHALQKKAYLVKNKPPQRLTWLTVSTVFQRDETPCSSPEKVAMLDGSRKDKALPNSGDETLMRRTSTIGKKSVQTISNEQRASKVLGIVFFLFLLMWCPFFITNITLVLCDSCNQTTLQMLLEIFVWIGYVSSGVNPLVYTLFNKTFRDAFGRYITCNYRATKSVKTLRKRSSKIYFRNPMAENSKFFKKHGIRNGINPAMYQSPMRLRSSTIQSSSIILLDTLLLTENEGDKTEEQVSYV
Chain of HISTAMINE H1 RECEPTOR (P35367 whole entry): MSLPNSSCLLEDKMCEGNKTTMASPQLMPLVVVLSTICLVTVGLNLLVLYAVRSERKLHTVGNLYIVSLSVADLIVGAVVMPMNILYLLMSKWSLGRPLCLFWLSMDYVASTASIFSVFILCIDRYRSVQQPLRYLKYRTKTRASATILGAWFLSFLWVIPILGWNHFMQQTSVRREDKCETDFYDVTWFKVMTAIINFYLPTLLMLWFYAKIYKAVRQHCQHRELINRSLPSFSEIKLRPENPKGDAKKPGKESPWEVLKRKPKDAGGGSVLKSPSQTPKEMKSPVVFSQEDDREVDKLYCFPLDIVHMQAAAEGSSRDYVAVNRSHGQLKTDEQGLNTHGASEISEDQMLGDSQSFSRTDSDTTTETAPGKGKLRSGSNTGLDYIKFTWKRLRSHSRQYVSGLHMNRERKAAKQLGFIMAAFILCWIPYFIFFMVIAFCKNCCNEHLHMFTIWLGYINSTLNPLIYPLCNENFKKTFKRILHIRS
Chain of ESTROGEN RECEPTOR α (P03372 whole entry): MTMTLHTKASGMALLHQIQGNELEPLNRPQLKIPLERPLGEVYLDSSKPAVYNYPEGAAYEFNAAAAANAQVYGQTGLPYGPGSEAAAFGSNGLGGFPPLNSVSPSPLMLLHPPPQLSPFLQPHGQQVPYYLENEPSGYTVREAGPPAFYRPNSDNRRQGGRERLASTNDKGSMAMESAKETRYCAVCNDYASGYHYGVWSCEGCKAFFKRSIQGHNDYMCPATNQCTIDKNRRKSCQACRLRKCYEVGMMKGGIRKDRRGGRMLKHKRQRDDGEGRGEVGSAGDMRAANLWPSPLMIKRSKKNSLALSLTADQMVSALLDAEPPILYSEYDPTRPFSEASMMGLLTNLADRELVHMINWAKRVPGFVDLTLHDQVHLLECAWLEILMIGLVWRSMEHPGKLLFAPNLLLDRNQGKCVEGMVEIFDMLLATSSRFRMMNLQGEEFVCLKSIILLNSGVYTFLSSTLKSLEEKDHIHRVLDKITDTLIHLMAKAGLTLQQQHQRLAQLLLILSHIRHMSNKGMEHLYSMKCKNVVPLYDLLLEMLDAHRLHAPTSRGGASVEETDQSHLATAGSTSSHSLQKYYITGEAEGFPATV

| SMILES | inhibition at 10 µM (DOPAMINE D1 RECEPTOR) | inhibition at 10 µM (CANNABINOID RECEPTOR CB1) | inhibition at 10 µM (MUSCARINIC RECEPTOR M1) | inhibition at 10 µM (HISTAMINE H1 RECEPTOR) | inhibition at 10 µM (5HT2A) | inhibition at 10 µM (ANDROGEN RECEPTOR) | inhibition at 10 µM (ADENOSINE A3 RECEPTOR) | inhibition at 10 µM [1] | inhibition at 10 µM (β1-ADRENOCEPTOR) | inhibition at 10 µM (5HT1A) | inhibition at 10 µM [2] | inhibition at 10 µM [3] | inhibition at 10 µM (ESTROGEN RECEPTOR α) | inhibition at 10 µM (ADENOSINE A1 RECEPTOR) | inhibition at 10 µM (HISTAMINE H2 RECEPTOR) | inhibition at 10 µM [4] | inhibition at 10 µM (SEROTONIN TRANSPORTER) | inhibition at 10 µM (κ OPIOID RECEPTOR) | inhibition at 10 µM (HISTAMINE H3 RECEPTOR) | inhibition at 10 µM (alpha1A-ADRENOCEPTOR) | also measured |
| --- | --- | --- | --- | --- | --- | --- | --- | --- | --- | --- | --- | --- | --- | --- | --- | --- | --- | --- | --- | --- | --- |
| COc1ccc(Oc2ccc3ncn(CCOc4ccc(CCC(=O)O)cc4)c3c2)cc1 [Compound 2] | -5.7% | -3.2% | -0.2% | -6.7% | -8.8% | 3.1% | 17.1% | -6.8% | 6.9% | 22.7% | -6.2% | 7.6% | -1.8% | -3.6% | -3.1% | 0.7% | 6.4% | -0.7% | 2.1% | 2.9% | inhibition at 10 µM (µ OPIOID RECEPTOR): 6.2%; inhibition at 10 µM [5]: 0.9%; inhibition at 10 µM (5HT3): 0.3%; inhibition at 10 µM (α2A-ADRENOCEPTOR): 4.9%; inhibition at 10 µM (GLUCOCORTICOID RECEPTOR): -2.1%; inhibition at 10 µM (5HT2B): 7.1%; inhibition at 10 µM [6]: -8.3%; clearance rate in human hepatocytes [7]: 19 μL·min−1 10^6 cells−1; Hepatocyte clearance human [7]: 19 |
| Cc1nnc(-c2ccc(OCCCOc3ccc(CCC(=O)O)c(F)c3)c(F)c2)s1 [Compound 1] | -3.3% | 9.3% | 8.4% | -7% | -3.3% | -1.6% | 9% | -1.9% | 0.7% | -20.6% | -7.5% | 1.2% | 13.6% | 9.4% | 10.9% | -3.3% | 6.9% | 10.9% | 4.9% | 1.7% | inhibition at 10 µM (µ OPIOID RECEPTOR): -6.9%; inhibition at 10 µM [5]: -3.7%; inhibition at 10 µM (5HT3): -4.7%; inhibition at 10 µM (α2A-ADRENOCEPTOR): -3.2%; inhibition at 10 µM (GLUCOCORTICOID RECEPTOR): -3.8%; inhibition at 10 µM (5HT2B): 6.6%; inhibition at 10 µM [6]: 2.3%; clearance rate in human hepatocytes [7]: 19 μL·min−1 10^6 cells−1; Hepatocyte clearance human [7]: 19 |
